Source: US8282944B2, “Metal complexes incorporated within biodegradable nanoparticles and their use” (The University of Akron, priority 2007, dated 2012)

Tests used:
ACHN renal carcinoma = test: Anti-proliferative effects on ACHN renal carcinoma at 96 hours of growth; format: cell-based; conditions: 0.5-25 μm, FIGS. 4 and 5
Procedure: (§1) The anti-proliferative effects of formula 23, cisplatin and carboplatin were investigated on ACHN renal carcinoma at 96 hours of growth and are shown in FIGS. 4 and 5. Percent control growth and percent standard error of the means (SEM) were conducted at various concentrations including 0.5 μm, 1.0 μm, 2.5 μm, 5.0 μm, 10 μm, 15 μm, 20 μm and 25 μm.

HT1376 colon carcinoma = test: Anti-proliferative effects on HT1376 colon carcinoma at 96 hours of growth; format: cell-based; conditions: 0.5-25 μm, FIGS. 6 and 7
Procedure: as §1, with “on HT1376 colon” for “on ACHN renal”, “FIGS. 6” for “FIGS. 4”, “and 7.” for “and 5.”

A375 melanoma = test: Anti-proliferative effects on A375 melanoma at 96 hours of growth; format: cell-based; conditions: 0.5-25 μm, FIGS. 2 and 3
Procedure: as §1, with “on A375 melanoma” for “on ACHN renal carcinoma”, “FIGS. 2” for “FIGS. 4”, “and 3.” for “and 5.”, “[…].” for “25 μm.”

[1] = test system: ovarian cancer cell line NuTu-19; test: MTT test against ovarian cancer cell line NuTu-19; format: cell-based
Procedure: In one example, a silver(I) complex as represented in formula 23 has been tested for preliminary anticancer activity against the ovarian cancer cell line NuTu-19. Silver complex 23 was chosen because of its overall stability.
Cells were plated at 5000 cells per well in a 96-well plate. All tests were run in triplicate. Cells were allowed to incubate overnight after plating followed by the addition of a 50 μM solution of 23, cisplatin, and thiaether-RhCl3 dissolved in complete cell media. The cells were then incubated for 72 h followed by the addition of MTT dissolved in phosphate buffered saline (PBS) and incubated for another 4 h. A sodium dodecyl sulfate: 0.01M HCl (SDS) solution was then added and the cells were incubated overnight. The SDS solution is added to solubilize the blue formazan crystals that are formed by the reduction of MTT by living cells. The absorbance is then read on a microplate reader. Therefore, the higher the absorbance the more living cells present in cell colony.

rat models = test: Toxicity in rat models via IV tail injection; format: in vivo
Description: In one embodiment, the R group is an alcohol. Suitable alcohols include ethanol and propanol. For formula 26, n has a value between 1 and 200.

Structure (SMILES)	percent control growth compared to carboplatin (ACHN renal carcinoma)	percent control growth compared to cisplatin (ACHN renal carcinoma)	percent control growth compared to carboplatin and cisplatin (HT1376 colon carcinoma)	percent control growth compared to cisplatin and carboplatin (A375 melanoma)	cell kill (MTT absorbance, FIG. 1) ([1]; NuTu-19, 50 μM, after 72 h of incubation)	anticancer activity ([1]; NuTu-19, tested for a period of 72 hours, preliminary)	toxicity (rat models)
CC(=O)[O][Ag][CH]1N(C)C(Cl)=C(Cl)N1C [formula 23]	comparable control growth	better control growth	comparable control growth	best control growth	kills all cells	shown anticancer activity	–
OC1(O)CN2C=CN3Cc4cccc(n4)CN4C=CN(C1)[CH]4[Ag][CH]1N4C=CN1CC(O)(O)CN1C=CN(Cc5cccc(n5)C4)[CH]1[Ag][CH]32 [formula 24]	–	–	–	–	–	–	severe toxicity
